Patent US11285226B2, “Aryl ethene derivative and pharmaceutical composition containing same as active ingredient” (priority 2016, dated 2022)

Assays:
CYP2D6 = CYP2D6 (Homo sapiens (Human), UniProt P10635); test: Cytochrome P450 activity inhibition, CYP2D6; format: in vitro ADME; settings: 10 μM, human liver microsomes
Source text: (§1) 1) Cytochrome P450 (CYP450) Activity Inhibition Evaluation

CYP1A2 = CYP1A2 (Homo sapiens (Human), UniProt P05177); test: Cytochrome P450 activity inhibition, CYP1A2; format: in vitro ADME; settings: 10 μM, human liver microsomes
Sequence of CYP1A2 (P05177 whole entry): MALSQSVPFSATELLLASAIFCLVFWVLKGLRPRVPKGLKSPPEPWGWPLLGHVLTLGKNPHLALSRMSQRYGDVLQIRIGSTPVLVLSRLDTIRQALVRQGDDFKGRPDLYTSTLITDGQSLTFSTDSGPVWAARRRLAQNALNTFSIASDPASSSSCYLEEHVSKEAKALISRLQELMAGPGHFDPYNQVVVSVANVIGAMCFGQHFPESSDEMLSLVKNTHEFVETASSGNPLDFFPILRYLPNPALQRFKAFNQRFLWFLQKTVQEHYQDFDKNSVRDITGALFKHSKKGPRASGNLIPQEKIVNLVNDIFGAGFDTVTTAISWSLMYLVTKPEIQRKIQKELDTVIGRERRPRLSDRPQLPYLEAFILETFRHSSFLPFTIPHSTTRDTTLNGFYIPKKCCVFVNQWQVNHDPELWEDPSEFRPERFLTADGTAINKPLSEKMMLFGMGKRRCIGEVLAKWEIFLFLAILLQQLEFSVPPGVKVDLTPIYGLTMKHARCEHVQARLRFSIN
Source text: as §1

CYP2C19 = CYP2C19 (Homo sapiens (Human), UniProt P33261); test: Cytochrome P450 activity inhibition, CYP2C19; format: in vitro ADME; settings: 10 μM, human liver microsomes
Sequence of CYP2C19 (P33261 whole entry): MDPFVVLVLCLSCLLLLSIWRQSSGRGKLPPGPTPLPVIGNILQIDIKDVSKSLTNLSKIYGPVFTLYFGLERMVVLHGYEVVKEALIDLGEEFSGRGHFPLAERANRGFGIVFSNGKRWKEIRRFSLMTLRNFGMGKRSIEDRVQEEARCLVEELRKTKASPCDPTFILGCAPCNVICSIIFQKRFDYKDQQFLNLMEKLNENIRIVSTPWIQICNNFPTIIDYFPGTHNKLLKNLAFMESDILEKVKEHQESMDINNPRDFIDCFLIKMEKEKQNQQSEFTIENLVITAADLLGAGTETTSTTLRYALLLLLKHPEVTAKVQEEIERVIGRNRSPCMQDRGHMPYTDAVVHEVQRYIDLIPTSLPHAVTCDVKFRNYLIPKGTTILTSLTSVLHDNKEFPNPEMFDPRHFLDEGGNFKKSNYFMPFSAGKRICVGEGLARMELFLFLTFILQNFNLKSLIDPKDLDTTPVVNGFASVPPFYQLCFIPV
Source text: as §1

CYP2C9 = CYP2C9 (Homo sapiens (Human), UniProt P11712); test: Cytochrome P450 activity inhibition, CYP2C9; format: in vitro ADME; settings: 10 μM, human liver microsomes
Sequence of CYP2C9 (P11712 whole entry): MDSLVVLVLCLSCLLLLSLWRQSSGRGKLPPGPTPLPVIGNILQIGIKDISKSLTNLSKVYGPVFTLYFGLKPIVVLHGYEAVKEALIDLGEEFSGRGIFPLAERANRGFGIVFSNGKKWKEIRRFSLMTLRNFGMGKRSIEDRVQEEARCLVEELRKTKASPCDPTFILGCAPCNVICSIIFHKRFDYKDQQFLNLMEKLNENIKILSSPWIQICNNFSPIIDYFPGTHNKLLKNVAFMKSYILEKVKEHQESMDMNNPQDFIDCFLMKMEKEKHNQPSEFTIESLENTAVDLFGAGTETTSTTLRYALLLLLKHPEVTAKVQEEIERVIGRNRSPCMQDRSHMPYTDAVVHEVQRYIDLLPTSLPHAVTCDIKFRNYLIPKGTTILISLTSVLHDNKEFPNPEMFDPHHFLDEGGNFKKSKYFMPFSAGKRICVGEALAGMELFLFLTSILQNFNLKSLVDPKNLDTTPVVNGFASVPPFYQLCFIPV
Source text: as §1

CYP3A4 = CYP3A4 (Homo sapiens (Human), UniProt P08684); test: Cytochrome P450 activity inhibition, CYP3A4; format: in vitro ADME; settings: 10 μM, human liver microsomes
Sequence of CYP3A4 (P08684 whole entry): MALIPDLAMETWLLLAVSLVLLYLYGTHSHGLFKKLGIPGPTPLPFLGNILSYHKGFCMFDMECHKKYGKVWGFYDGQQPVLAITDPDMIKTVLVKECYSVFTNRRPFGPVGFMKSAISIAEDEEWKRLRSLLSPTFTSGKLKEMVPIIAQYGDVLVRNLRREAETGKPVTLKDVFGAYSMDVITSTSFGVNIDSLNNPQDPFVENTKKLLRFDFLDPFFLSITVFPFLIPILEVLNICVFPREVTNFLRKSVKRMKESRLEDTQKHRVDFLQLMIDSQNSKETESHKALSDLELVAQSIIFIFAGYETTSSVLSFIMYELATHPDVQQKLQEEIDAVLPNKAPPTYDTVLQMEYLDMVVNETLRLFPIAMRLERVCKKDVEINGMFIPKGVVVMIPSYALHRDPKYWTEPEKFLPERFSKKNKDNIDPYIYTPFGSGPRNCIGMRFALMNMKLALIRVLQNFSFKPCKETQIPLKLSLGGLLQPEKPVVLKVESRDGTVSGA
Protocol: Thereafter, in order to complete the reaction, an acetonitrile solution containing an internal standard material (Terfenadine) was added thereto, centrifugation (14,000 rpm, 4° C.) was performed for 5 minutes, and a supernatant was injected into a LC-MS/MS system to analyze the metabolites of the substrate drug, thereby evaluating drug metabolism enzyme inhibition by the arylethene derivative of the present invention.

ERRγ = format: cell-based; settings: for Functional Assay at 10 μM (% of control), Cpds: AD293, 24 hours; for Functional Assay, Cpds/Ref 5182: activity relative to reference compound GSK5182
Protocol: AD293 was cultured in a 24-well plate for 24 hours, using a DMEM High glucose culture medium (Hyclone, USA) to which 0.5% FBS was added at a concentration of 9×10^4/well. The culture medium was replaced with a DMEM High glucose culture medium to which 10% FBS was added, treatment was performed with a mixture of a TransIT-LT1 transfection reagent (Minis, USA) and pCMX-Gal4-ERRγ, pFR-luciferase reporter plasmid, pCMV-β-gal, and culturing was performed for 24 hours. Thereafter, a luciferase activity assay and a β-gal assay were performed, respectively, with a lysate obtained after treatment with the arylethene derivative of the present invention for 24 hours. All results were derived from three or more independent repetitive experiments.

[1] = format: in vitro ADME, human; settings: 1 μM, 30 minutes, 37° C.
Protocol: 2) Microsomal Stability Evaluation
Four liver microsomes (Human, Dog, Rat, Mouse 0.5 mg/ml) with a 0.1 M phosphate buffer solution (pH 7.4), and the arylethene derivative of the present invention were added to a concentration of 1 μM, culturing was performed at 37° C. for 5 minutes in advance, a NADPH regeneration system solution was added thereto, and culturing was performed at 37° C. for 30 minutes. Thereafter, in order to complete the reaction, an acetonitrile solution containing an internal standard material (chlorpropamide) was added thereto, centrifugation (14,000 rpm, 4° C.) was performed for 5 minutes, and a supernatant was injected into a LC-MS/MS system to analyze the substrate drug, thereby evaluating metabolism stability to the arylethene derivative of the present invention.

[2] = format: in vivo; settings: rat, IV 1 mg/kg
Protocol: An oral administration group fasts the day before.
Blood of each animal is collected at 0 hour.
Into a tail vein of an intravenous administration group (IV), a drug is injected at a dose of 1 mg/kg (syringe).
To an oral administration group (PO), a drug is orally administered at a dose of 10 mg/kg (oral zondec)
After administration, blood of the intravenous administration group was collected through a jugular vein 8 times at 0.08, 0.25, 0.5, 1, 2, 4, 6, and 8 hours. One collected blood amount is 400 to 500 ul.
After administration, blood of the oral administration group was collected through a jugular vein 6 times at 0.25, 0.5, 1, 4, 6 and 8 hours. One collected blood amount is 400 to 500 ul.
Supernatant plasma is collected by a centrifuge.
The supernatant plasma was injected into a LC-MS/MS system and the drug is analyzed.

Sequence of CYP2D6 (P10635 whole entry): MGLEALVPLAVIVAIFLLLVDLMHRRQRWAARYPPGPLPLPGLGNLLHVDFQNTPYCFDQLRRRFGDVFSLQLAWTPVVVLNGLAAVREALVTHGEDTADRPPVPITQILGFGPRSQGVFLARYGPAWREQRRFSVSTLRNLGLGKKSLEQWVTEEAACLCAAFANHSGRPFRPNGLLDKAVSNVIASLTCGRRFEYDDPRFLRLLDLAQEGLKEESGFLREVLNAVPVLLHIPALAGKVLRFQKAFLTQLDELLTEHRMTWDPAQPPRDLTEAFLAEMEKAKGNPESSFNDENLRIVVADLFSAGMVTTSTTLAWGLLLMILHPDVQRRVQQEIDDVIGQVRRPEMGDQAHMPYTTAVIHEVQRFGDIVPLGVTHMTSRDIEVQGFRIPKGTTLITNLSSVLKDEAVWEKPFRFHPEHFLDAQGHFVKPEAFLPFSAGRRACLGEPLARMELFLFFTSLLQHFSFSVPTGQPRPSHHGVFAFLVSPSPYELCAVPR

## OCCC/C(=C(\c1ccc(O)cc1)c1ccc(OCCN2CCC3(CCNC3)C2)cc1)c1ccccc1 (centres unmarked) [Compound 39, (Z)-4-(1-(4-(2-(2,7-diazaspiro[4.4]nonan-2-yl)ethoxy)phenyl)-5-hydroxy-2-phenylpent-1-en-1-yl)phenol]
CYP2D6
  CYP inhibition (% of control) 2D6: 67.8 % of control
CYP1A2
  CYP inhibition (% of control) 1A2: 82.5 % of control
CYP2C19
  CYP inhibition (% of control) 2C19: 73.9 % of control
CYP2C9
  CYP inhibition (% of control) 2C9: 74.4 % of control
CYP3A4
  CYP inhibition (% of control) 3A4: 59 % of control

## CN1CCN(c2ccc(/C(=C(/CCCOC(=O)C(C)(C)C)c3ccccc3)c3ccc(OC(=O)C(C)(C)C)cc3)cc2)CC1 [Compound 28g]
ERRγ
  Functional Assay at 10 μM (% of control), Cpds: 5.1 % of control

## Cc1ccc(/C(=C(\CCCO)c2ccccc2)c2ccc(N3CCN(C)CC3)cc2)cc1 [Compound 18f]
CYP1A2
  CYP inhibition (% of control) 1A2: >100 % of control
ERRγ
  Functional Assay, Cpds/Ref 5182: 0.82

## OCCC/C(=C(\c1ccc(O)cc1)c1ccc(OCCN2CCCC2)cc1)c1ccccc1 [Compound 6e]
CYP2D6
  CYP inhibition (% of control) 2D6: 80.6 % of control
CYP1A2
  CYP inhibition (% of control) 1A2: 79.6 % of control
CYP2C19
  CYP inhibition (% of control) 2C19: 64.1 % of control
CYP2C9
  CYP inhibition (% of control) 2C9: 51.6 % of control
CYP3A4
  CYP inhibition (% of control) 3A4: 68.1 % of control

## OCCC/C(=C(\c1ccc(O)cc1)c1ccc(C2CCN(C3CC3)CC2)cc1)c1ccccc1 [Compound 22i]
[1]
  MS (Microsomal Stability) (%) human: 36.0%

## CC(C)N1CCC(c2ccc(/C(=C(/CCCO)c3ccccc3)c3cccc(O)c3)cc2)CC1 [Compound 22h]
CYP1A2
  CYP inhibition (% of control) 1A2: >100 % of control
CYP2C19
  CYP inhibition (% of control) 2C19: >100 % of control

## O=C(CN1CCCCC1)Nc1ccc(/C(=C(/CCCO)c2ccccc2)c2ccc(O)cc2)cc1 [Compound 44, (E)-N-(4-(5-hydroxy-1-(4-hydroxyphenyl)-2-phenylpent-1-en-1-yl)phenyl)-2-(piperidin-1-yl)acetamide]
[2]
  AUCINF: 0.34 μMh
  AUCall: 0.28 μMh
  Cl(observed)/F: 139 mL/min/kg
  Vss: 52.8 L/kg
  t1/2: 4.4 h

## Cc1ccc(/C(=C(\CCCO)c2ccccc2)c2ccc(C3CN(C(C)C)C3)cc2)cc1 [Compound 22e]
ERRγ
  Functional Assay, Cpds/Ref 5182: 0.61

## OCCC/C(=C(\c1ccc(Br)cc1)c1ccc(N2CCNCC2)cc1)c1ccccc1 [Compound 20a, (E)-5-(4-bromophenyl)-4-phenyl-5-(4-(piperazin-1-yl)phenyl)pent-4-en-1-ol]
CYP2D6
  CYP inhibition (% of control) 2D6: 70.7 % of control
CYP1A2
  CYP inhibition (% of control) 1A2: 85 % of control
CYP2C19
  CYP inhibition (% of control) 2C19: 61.9 % of control
CYP2C9
  CYP inhibition (% of control) 2C9: 76 % of control
CYP3A4
  CYP inhibition (% of control) 3A4: 55 % of control

## CN1CCC[C@@H]1COc1ccc(/C(=C(/CCCO)c2ccccc2)c2ccc(O)cc2)cc1 [Compound 6i]
CYP2D6
  CYP inhibition (% of control) 2D6: 93.6 % of control
CYP1A2
  CYP inhibition (% of control) 1A2: 98.1 % of control
CYP2C19
  CYP inhibition (% of control) 2C19: 82.6 % of control
CYP2C9
  CYP inhibition (% of control) 2C9: 86.7 % of control
CYP3A4
  CYP inhibition (% of control) 3A4: 79.4 % of control

## OCCC/C(=C(/c1ccc(C2=CCN(C3CC3)CC2)cc1)c1cccc(O)c1)c1ccccc1 [Compound 22l]
CYP2D6
  CYP inhibition (% of control) 2D6: 99 % of control
CYP2C19
  CYP inhibition (% of control) 2C19: 97 % of control

## CN1CCN(c2ccc(/C(=C(/CCCO)c3ccccc3)c3ccc(O)cc3)cc2)CC1 [Compound 18d]
CYP1A2
  CYP inhibition (% of control) 1A2: 88 % of control
ERRγ
  Functional Assay, Cpds/Ref 5182: 0.97
CYP3A4
  CYP inhibition (% of control) 3A4: 64 % of control

## CC(C)N1CCN(c2ccc(/C(=C(/CCCO)c3ccccc3)c3ccc(OS(C)(=O)=O)cc3)cc2)CC1 [Compound 28a, (E)-4-(5-hydroxy-1-(4-(4-isopropylpiperazin-1-yl)phenyl)-2-phenylpent-1-en-1-yl)phenyl methanesulfonate]
ERRγ
  Functional Assay, Cpds/Ref 5182: 1.20

## CN1CCCC1CCOc1ccc(/C(=C(/CCCO)c2ccccc2)c2ccc(O)cc2)cc1 (centres unmarked) [Compound 6g]
CYP2D6
  CYP inhibition (% of control) 2D6: 81.7 % of control
CYP1A2
  CYP inhibition (% of control) 1A2: 97.8 % of control
CYP2C19
  CYP inhibition (% of control) 2C19: 81.8 % of control
CYP2C9
  CYP inhibition (% of control) 2C9: 75.4 % of control
ERRγ
  Functional Assay, Cpds/Ref 5182: 1.60
CYP3A4
  CYP inhibition (% of control) 3A4: 83.7 % of control

## CC(C)(C)OC(=O)N1CCN(c2ccc(/C(=C(/CCCO)c3ccccc3)c3ccc(Br)cc3)cc2)CC1 [Compound 18n]
ERRγ
  Functional Assay, Cpds/Ref 5182: 0.82

## CN1CCN(c2ccc(/C(=C(/CCCOC(=O)C(C)(C)C)c3ccccc3)c3ccc(O)cc3)cc2)CC1 [Compound 28f]
ERRγ
  Functional Assay at 10 μM (% of control), Cpds: 4 % of control
  Functional Assay, Cpds/Ref 5182: 0.98

## OCCC/C(=C(\c1ccc(O)cc1)c1ccc(N2CCN(C3CCC3)CC2)cc1)c1ccccc1 [Compound 22q]
CYP3A4
  CYP inhibition (% of control) 3A4: 81 % of control

## OCCC/C(=C(\c1ccc(O)cc1)c1ccc(OCCN2CCC[C@@H]2CO)cc1)c1ccccc1 [Compound 38c]
ERRγ
  Functional Assay, Cpds/Ref 5182: 0.99

## CC(C)N1CCN(c2ccc(/C(=C(/CCCO)c3ccccc3)c3ccc([N+](=O)[O-])cc3)cc2)CC1 [Compound 18g]
ERRγ
  Functional Assay, Cpds/Ref 5182: 0.84

## CN1CCC(c2ccc(/C(=C(/CCCO)c3ccccc3)c3cccc(O)c3)cc2)CC1 [Compound 22ac]
CYP1A2
  CYP inhibition (% of control) 1A2: >100 % of control
CYP2C19
  CYP inhibition (% of control) 2C19: >100 % of control
CYP2C9
  CYP inhibition (% of control) 2C9: >100 % of control
CYP3A4
  CYP inhibition (% of control) 3A4: 85 % of control

## CC(C)(C)OC(=O)N1CC(c2ccc(/C(=C(/CCCO)c3ccccc3)c3ccc(O)cc3)cc2)C1 [Compound 18t, tert-butyl (E)-3-(4-(5-hydroxy-1-(4-hydroxyphenyl)-2-phenylpent-1-en-1-yl)phenyl)azetidine-1-carboxylate]
CYP2D6
  CYP inhibition (% of control) 2D6: 98 % of control
CYP1A2
  CYP inhibition (% of control) 1A2: 100 % of control
CYP2C19
  CYP inhibition (% of control) 2C19: 93 % of control
CYP2C9
  CYP inhibition (% of control) 2C9: 83 % of control
CYP3A4
  CYP inhibition (% of control) 3A4: 106 % of control

## CC(C)N1CCN(c2ccc(/C(=C(/CCCO)c3ccccc3)c3ccc(Br)cc3)cc2)CC1 [Compound 18h]
[1]
  MS (Microsomal Stability) (%) human: >100%

## OCCC/C(=C(\c1ccc(O)cc1)c1ccc(C2=CCN(C3CC3)CC2)cc1)c1ccccc1 [Compound 22j]
CYP2C9
  CYP inhibition (% of control) 2C9: 88 % of control
CYP3A4
  CYP inhibition (% of control) 3A4: 85 % of control

## CN1CCN(c2ccc(/C(=C(/CCCO)c3ccccc3)c3ccc(N)cc3)cc2)CC1 [Compound 26a, (Z)-5-(4-aminophenyl)-5-(4-(4-methylpiperazin-1-yl)phenyl)-4-phenylpent-4-en-1-ol]
CYP2D6
  CYP inhibition (% of control) 2D6: 85.5 % of control
CYP1A2
  CYP inhibition (% of control) 1A2: >100 % of control
CYP2C19
  CYP inhibition (% of control) 2C19: 89 % of control
CYP2C9
  CYP inhibition (% of control) 2C9: 53.2 % of control
ERRγ
  Functional Assay, Cpds/Ref 5182: 0.84
CYP3A4
  CYP inhibition (% of control) 3A4: 75.4 % of control

## CN1CCC[C@@H]1CCOc1ccc(/C(=C(/CCCO)c2ccccc2)c2ccc(O)cc2)cc1 [Compound 6k]
ERRγ
  Functional Assay, Cpds/Ref 5182: 0.79

## C[Si](C)(CN1CCCC1)c1ccc(/C(=C(/CCCO)c2ccccc2)c2ccc(O)cc2)cc1 [Compound 42c]
ERRγ
  Functional Assay at 10 μM (% of control), Cpds: 2.6 % of control
  Functional Assay, Cpds/Ref 5182: 0.89

## OCCC/C(=C(\c1ccc(O)cc1)c1ccc(OCCN2CCOCC2)cc1)c1ccccc1 [Compound 6c]
CYP2D6
  CYP inhibition (% of control) 2D6: 96.4 % of control
CYP1A2
  CYP inhibition (% of control) 1A2: 91.9 % of control
CYP2C19
  CYP inhibition (% of control) 2C19: 81.6 % of control
CYP2C9
  CYP inhibition (% of control) 2C9: 77.9 % of control
CYP3A4
  CYP inhibition (% of control) 3A4: 81.3 % of control

## CCN1CCN(c2ccc(/C(=C(/CCCO)c3ccccc3)c3ccc(O)cc3)cc2)CC1 [Compound 18i]
ERRγ
  Functional Assay, Cpds/Ref 5182: 0.97

## CN1CCCC1CCOc1ccc(/C(=C(/CCCO)c2ccccc2)c2ccc(Br)cc2)cc1 (centres unmarked) [Compound 13d]
CYP2D6
  CYP inhibition (% of control) 2D6: >100 % of control
CYP1A2
  CYP inhibition (% of control) 1A2: >100 % of control
CYP2C19
  CYP inhibition (% of control) 2C19: 89.4 % of control
CYP2C9
  CYP inhibition (% of control) 2C9: 97 % of control
CYP3A4
  CYP inhibition (% of control) 3A4: 90.2 % of control

## CN1CCC[C@H]1CCOc1ccc(/C(=C(/CCCO)c2ccccc2)c2ccc(O)cc2)cc1 [Compound 6j]
CYP2D6
  CYP inhibition (% of control) 2D6: 85.2 % of control
CYP1A2
  CYP inhibition (% of control) 1A2: 98.7 % of control
CYP2C19
  CYP inhibition (% of control) 2C19: 89.1 % of control
CYP2C9
  CYP inhibition (% of control) 2C9: 85.6 % of control
ERRγ
  Functional Assay, Cpds/Ref 5182: 0.77
CYP3A4
  CYP inhibition (% of control) 3A4: 74.6 % of control

## CC(C)N1CCC(c2ccc(/C(=C(/CCCO)c3ccccc3)c3ccc(N)cc3)cc2)CC1 [Compound 26c]
ERRγ
  Functional Assay, Cpds/Ref 5182: 4.80

## OCCC/C(=C(\c1ccc(O)cc1)c1ccc(N2CCNCC2)cc1)c1ccccc1 [Compound 20c]
ERRγ
  Functional Assay, Cpds/Ref 5182: 0.93

## CCN1CCC(c2ccc(C(=C(CCCO)c3ccccc3)c3cccc(O)c3)cc2)CC1 [Compound 22ae]
CYP2C19
  CYP inhibition (% of control) 2C19: >100 % of control
CYP2C9
  CYP inhibition (% of control) 2C9: >100 % of control

## CN1CCN(c2ccc(/C(=C(/CCCO)c3ccccc3)c3ccc([N+](=O)[O-])cc3)cc2)CC1 [Compound 18c]
CYP2C19
  CYP inhibition (% of control) 2C19: 80 % of control
ERRγ
  Functional Assay, Cpds/Ref 5182: 0.42

## OCCC/C(=C(\c1ccc(O)cc1)c1ccc(C2CN(C3CC3)C2)cc1)c1ccccc1 [Compound 22d]
CYP1A2
  CYP inhibition (% of control) 1A2: >100 % of control
CYP2C19
  CYP inhibition (% of control) 2C19: >100 % of control
CYP2C9
  CYP inhibition (% of control) 2C9: >100 % of control
ERRγ
  Functional Assay, Cpds/Ref 5182: 0.62
